In one test the target is human CB2 receptors (Homo sapiens (Human), UniProt P34972). Put plainly: cAMP assay, CHO cells expressing human CB2 receptors. It is filed as cell-based. The note with it: functional cAMP assay, CHO cells expressing human CB2; read-out: human CB2 EC50. Here is the method:
(§1) CHO cells expressing human CB1 or CB2 receptors are seeded 17-24 hours prior to the experiment 50.000 cells per well in a black 96 well plate with flat clear bottom (Corning Costar #3904) in DMEM (Invitrogen No. 31331), 1×HT supplement, with 10% fetal calf serum and incubated at 5% CO2 and 37° C. in a humidified incubator. The growth medium was exchanged with Krebs Ringer Bicarbonate buffer with 1 mM IBMX and incubated at 30° C. for 30 min. Compounds were added to a final assay volume of 100 μl and incubated for 30 min at 30° C. Using the cAMP-Nano-TRF detection kit the assay (Roche Diagnostics) was stopped by the addition of 50 μl lysis reagent (Tris, NaCl, 1.5% Triton X100, 2.5% NP40, 10% NaN3) and 50 μl detection solutions (20 μM mAb Alexa700-cAMP 1:1, and 48 μM Ruthenium-2-AHA-cAMP) and shaken for 2 h at room temperature. The time-resolved energy transfer is measured by a TRF reader (Evotec Technologies GmbH), equipped with a ND:YAG laser as excitation source. The plate is measured twice with the excitation at 355 nm and at the emission with a delay of 100 ns and a gate of 100 ns, total exposure time 10 s at 730 (bandwidth 30 nm) or 645 nm (bandwidth 75 nm), respectively.
(§2) EC50 values were determined using Activity Base analysis (ID Business Solution, Limited).

A further test has as its target human CB1 receptors (Homo sapiens (Human), UniProt P21554). Put plainly: cAMP assay, CHO cells expressing human CB1 receptors. Format: cell-based. The note with it: functional cAMP assay, CHO cells expressing human CB1; read-out: human CB1 EC50. Here is the method: as §1, §2

Structures are written as SMILES. Where only a bound is given, the exact number is not on record here.

Chain of human CB2 receptors (P34972 whole entry): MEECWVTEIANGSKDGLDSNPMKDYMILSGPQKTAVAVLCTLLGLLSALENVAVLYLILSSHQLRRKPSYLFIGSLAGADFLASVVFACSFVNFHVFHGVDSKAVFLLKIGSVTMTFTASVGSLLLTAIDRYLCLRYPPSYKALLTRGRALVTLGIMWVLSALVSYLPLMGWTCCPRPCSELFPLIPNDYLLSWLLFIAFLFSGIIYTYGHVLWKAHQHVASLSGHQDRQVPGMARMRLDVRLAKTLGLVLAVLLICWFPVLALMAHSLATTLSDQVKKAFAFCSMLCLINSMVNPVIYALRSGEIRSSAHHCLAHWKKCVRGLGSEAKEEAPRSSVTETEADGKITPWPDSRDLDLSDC
Chain of human CB1 receptors (P21554 whole entry): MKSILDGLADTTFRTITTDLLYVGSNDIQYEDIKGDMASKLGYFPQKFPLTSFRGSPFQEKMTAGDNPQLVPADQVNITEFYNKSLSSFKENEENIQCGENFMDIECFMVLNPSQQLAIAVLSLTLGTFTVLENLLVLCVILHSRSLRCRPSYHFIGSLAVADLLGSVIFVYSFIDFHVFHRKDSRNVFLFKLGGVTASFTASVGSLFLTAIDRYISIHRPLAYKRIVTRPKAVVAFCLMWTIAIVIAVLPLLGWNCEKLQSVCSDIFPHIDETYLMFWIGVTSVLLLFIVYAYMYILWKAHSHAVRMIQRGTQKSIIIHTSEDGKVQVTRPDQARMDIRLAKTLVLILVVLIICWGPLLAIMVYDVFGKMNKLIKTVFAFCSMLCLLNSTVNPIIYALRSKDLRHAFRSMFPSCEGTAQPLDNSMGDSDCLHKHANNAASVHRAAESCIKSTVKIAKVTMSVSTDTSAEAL

As to `CNC(=O)CC(CCc1ccccc1)NC(=O)c1ccc(N2CC(F)(F)C2)c(OCC2CC2)n1` (stereo not shown) [Example 8, 6-Cyclopropylmethoxy-5-(3,3-difluoro-azetidin-1-yl)-pyridine-2-carboxylic acid (1-methylcarbamoylmethyl-3-phenyl-propyl)-amide], the EC50 on human CB2 receptors is 0.301 µM; at human CB1 receptors, > 10 µM.
Turning to `CC(C)CC(CNC(=O)c1ccc(N2CC(F)(F)C2)c(OCC2CC2)n1)C(=O)O` (stereo not shown) [Example 11, 2-[({[6-(Cyclopropylmethoxy)-5-(3,3-difluoroazetidin-1-yl)pyridin-2-yl]carbonyl}amino)methyl]-4-methylpentanoic acid], the EC50 at human CB2 receptors is 0.967 µM; at human CB1 receptors, > 10 µM.
With `CC(C)[C@H](CC(N)=O)NC(=O)c1ccc(N2CC(F)(F)C2)c(OCC2CC2)n1` [Example 19, 6-Cyclopropylmethoxy-5-(3,3-difluoro-azetidin-1-yl)-pyridine-2-carboxylic acid ((S)-1-carbamoylmethyl-2-methyl-propyl)-amide], the values for the EC50 at human CB2 receptors and at human CB1 receptors were 0.0032 µM and > 10 µM, respectively.
The matching figures for `NC(=O)[C@H]1CCCC[C@H]1NC(=O)c1ccc(N2CC(F)(F)C2)c(OCC2CC2)n1` [Example 21, (−)-cis-6-Cyclopropylmethoxy-5-(3,3-difluoro-azetidin-1-yl)-pyridine-2-carboxylic acid (2-carbamoyl-cyclohexyl)-amide]: 0.407 µM and > 10 µM.
The matching figures for `CCOC(=O)CC(CC(C)C)NC(=O)c1ccc(C2CC2)c(OCC2CC2)n1` (stereo not shown) [Example 22, 3-[(5-Cyclopropyl-6-cyclopropylmethoxy-pyridine-2-carbonyl)-amino]-5-methyl-hexanoic acid ethyl ester]: 0.0119 µM and > 10 µM.
The matching figures for `NC(=O)CC1(NC(=O)c2ccc(C3CC3)c(OCC3CC3)n2)COC1` [Example 23, 5-Cyclopropyl-6-cyclopropylmethoxy-pyridine-2-carboxylic acid (3-carbamoylmethyl-oxetan-3-yl)-amide]: 0.0014 µM and > 10 µM.
As for `CC(C)C[C@@H](CC(N)=O)NC(=O)c1ccc(C2CC2)c(OCC2CC2)n1` [Example 24, (−)-5-Cyclopropyl-6-cyclopropylmethoxy-pyridine-2-carboxylic acid (1-carbamoylmethyl-3-methyl-butyl)-amide], the EC50 was 0.003 µM at human CB2 receptors and > 10 µM at human CB1 receptors.
The matching figures for `CC(C)C[C@H](CC(N)=O)NC(=O)c1ccc(C2CC2)c(OCC2CC2)n1` [Example 25, (+)-5-Cyclopropyl-6-cyclopropylmethoxy-pyridine-2-carboxylic acid (1-carbamoylmethyl-3-methyl-butyl)-amide]: 0.0043 µM and > 10 µM.
In the same order, the values of `NC(=O)CC1(NC(=O)c2ccc(N3CC(F)(F)C3)c(OCC3CC3)n2)COC1` [Example 26, 6-Cyclopropylmethoxy-5-(3,3-difluoro-azetidin-1-yl)-pyridine-2-carboxylic acid (3-carbamoylmethyl-oxetan-3-yl)-amide] are 0.00565 µM and > 10 µM.
In the same order, the values of `CC(C)(C)[C@@H](CC(N)=O)NC(=O)c1ccc(C2CC2)c(OCC2CC2)n1` [Example 29, 5-Cyclopropyl-6-cyclopropylmethoxy-pyridine-2-carboxylic acid ((R)-1-carbamoylmethyl-2,2-dimethyl-propyl)-amide] are 0.0232 µM and > 10 µM.
`NC(=O)CC(NC(=O)c1ccc(C2CC2)c(OCC2CC2)n1)C1CCOCC1` (stereo not shown) [Example 30, 5-Cyclopropyl-6-cyclopropylmethoxy-pyridine-2-carboxylic acid [2-carbamoyl-1-(tetrahydro-pyran-4-yl)-ethyl]-amide]: the EC50 on human CB2 receptors was 0.0083 µM; on human CB1 receptors, > 10 µM.
For `CC(Oc1nc(C(=O)NC2(CC(N)=O)COC2)ccc1C1CC1)C(F)(F)F` (stereo not shown) [Example 33, 5-Cyclopropyl-6-(2,2,2-trifluoro-1-methyl-ethoxy)-pyridine-2-carboxylic acid (3-carbamoylmethyl-oxetan-3-yl)-amide], the figures for the EC50 at human CB2 receptors and at human CB1 receptors were 0.145 µM and > 10 µM, respectively.
In the same order, the values of `CC(C)(C)[C@H](CC(N)=O)NC(=O)c1ccc(C2CC2)c(OCC2CC2)n1` [Example 35, 5-Cyclopropyl-6-cyclopropylmethoxy-pyridine-2-carboxylic acid ((S)-1-carbamoylmethyl-2,2-dimethyl-propyl)-amide] are 0.0006 µM and 0.209 µM.
In the same order, the values of `CC(C)CS(=O)(=O)c1nc(C(=O)NC2(CC(N)=O)COC2)ccc1C1CC1` [Example 36, 5-Cyclopropyl-6-(2-methyl-propane-1-sulfonyl)-pyridine-2-carboxylic acid (3-carbamoylmethyl-oxetan-3-yl)-amide] are 0.255 µM and > 10 µM.
In the same order, the values of `CNC(=O)CC1(NC(=O)c2ccc(N3CC(F)(F)C3)c(OCC3CC3)n2)COC1` [Example 37, 6-Cyclopropylmethoxy-5-(3,3-difluoro-azetidin-1-yl)-pyridine-2-carboxylic acid (3-methylcarbamoylmethyl-oxetan-3-yl)-amide] are 0.363 µM and > 10 µM.
`CNC(=O)CC1(NC(=O)c2ccc(C3CC3)c(OCC3CC3)n2)COC1` [Example 38, 5-Cyclopropyl-6-cyclopropylmethoxy-pyridine-2-carboxylic acid (3-methylcarbamoylmethyl-oxetan-3-yl)-amide]: the EC50 on human CB2 receptors was 0.101 µM; on human CB1 receptors, > 10 µM.
The matching figures for `CNC(=O)CC1(NC(=O)c2ccc(C(F)(F)F)c(OCC3CC3)n2)COC1` [Example 39, 6-Cyclopropylmethoxy-5-trifluoromethyl-pyridine-2-carboxylic acid (3-methylcarbamoylmethyl-oxetan-3-yl)-amide]: 0.599 µM and > 10 µM.
The matching figures for `CN(C)C(=O)CC1(NC(=O)c2ccc(C3CC3)c(OCC3CC3)n2)COC1` [Example 40, 5-Cyclopropyl-6-cyclopropylmethoxy-pyridine-2-carboxylic acid (3-dimethylcarbamoylmethyl-oxetan-3-yl)-amide]: 0.345 µM and > 10 µM.
Turning to `CN(C)C(=O)CC1(NC(=O)c2ccc(N3CC(F)(F)C3)c(OCC3CC3)n2)COC1` [Example 41, 6-Cyclopropylmethoxy-5-(3,3-difluoro-azetidin-1-yl)-pyridine-2-carboxylic acid (3-dimethylcarbamoylmethyl-oxetan-3-yl)-amide], the EC50 on human CB2 receptors is 0.298 µM; on human CB1 receptors it was > 10 µM.
With `CN(C)C(=O)CC1(NC(=O)c2ccc(C(F)(F)F)c(OCC3CC3)n2)COC1` [Example 42, 6-Cyclopropylmethoxy-5-trifluoromethyl-pyridine-2-carboxylic acid (3-dimethylcarbamoylmethyl-oxetan-3-yl)-amide], the EC50 on human CB2 receptors was 0.967 µM; at human CB1 receptors, > 10 µM.
The matching figures for `NC(=O)C[C@@H](NC(=O)c1ccc(C2CC2)c(OCC2CC2)n1)c1cccc(Cl)c1` [Example 43, 5-Cyclopropyl-6-cyclopropylmethoxy-pyridine-2-carboxylic acid [(R)-2-carbamoyl-1-(3-chloro-phenyl)-ethyl]-amide]: 0.105 µM and > 10 µM.
In the same order, the values of `CC(C)[S+]([O-])c1nc(C(=O)NC2(CC(N)=O)COC2)ccc1Br` (stereo not shown) [Example 44, 5-Bromo-6-(propane-2-sulfinyl)-pyridine-2-carboxylic acid (3-carbamoylmethyl-oxetan-3-yl)-amide] are 0.413 µM and > 10 µM.
The matching figures for `COC(=O)CC1(NC(=O)c2ccc(C3CC3)c(OCC3CC3)n2)CCN(C(=O)OC(C)(C)C)CC1` [Example 45, 4-[(5-Cyclopropyl-6-cyclopropylmethoxy-pyridine-2-carbonyl)-amino]-4-methoxycarbonylmethyl-piperidine-1-carboxylic acid tert-butyl ester]: 0.237 µM and > 10 µM.
For `NC(=O)CC1(NC(=O)c2ccc(OC(F)(F)F)c(OCC3CC3)n2)COC1` [Example 46, 6-Cyclopropylmethoxy-5-trifluoromethoxy-pyridine-2-carboxylic acid (3-carbamoylmethyl-oxetan-3-yl)-amide], the EC50 at human CB2 receptors was 0.0314 µM; at human CB1 receptors, > 10 µM.
In the same order, the values of `NC(=O)CC1(NC(=O)c2ccc(OCC3CC3)c(Cl)n2)COC1` [Example 47, 6-Chloro-5-cyclopropylmethoxy-pyridine-2-carboxylic acid (3-carbamoylmethyl-oxetan-3-yl)-amide] are 0.793 µM and > 10 µM.
The matching figures for `CC(C)(CC(N)=O)NC(=O)c1ccc(N2CC(F)(F)C2)c(OCC2CC2)n1` [Example 48, 6-Cyclopropylmethoxy-5-(3,3-difluoro-azetidin-1-yl)-pyridine-2-carboxylic acid (2-carbamoyl-1,1-dimethyl-ethyl)-amide]: 0.0092 µM and > 10 µM.

The values above are taken from patent US9522886B2, “Pyridine derivatives” (Hoffmann-La Roche Inc., priority 2012, dated 2016).
